Results on 23 compounds are retold here after US9920088B2, “Triterpene derivative and its anti-influenza use” (Peking University, priority 2012, dated 2018).

In series [1] the test system is influenza virus A/WSN/33(H1N1). The experiment in a line: Cytopathic effect (CPE) inhibition assay, WSN virus in MDCK cells. It counts as cell-based. The settings on record: for Viral Infectivity (%): lower = better inhibition; for anti-influenza virus activity: WSN, CPE; for inhibition at 50 µM: MDCK, Table 9, protective rate against cytopathy, read-out: IAV inhibition rate (%).

The test system of the next series is MDCK cells. The settings on record: dog, 48 h, 50 μM.
Where [2] appears, read: Table 6, 50 μM, WSN MOI=1, 48 h.
The mark [3] stands for this setting: Table 8, 50 μM, WSN MOI=1, 48 h.

Consider `CC(=O)OCC1O[C@H](OC(=O)[C@]23CCC(C)(C)C[C@H]2C2=CC[C@@H]4[C@@]5(C)CC[C@H](O)C(C)(C)C5CC[C@@]4(C)[C@]2(C)CC3O)C(OC(C)=O)C(OC(C)=O)[C@H]1OC(C)=O` (stereo partly drawn) [Compound Q1, 3β,16α-dihydroxy-olean-12-en-28-oic acid-28-O-(2,3,4,6-tetra-O-acetyl-β-D-glucoside)], for which the “Viral Infectivity (%)” value in series [1] (setting [2]) stood at 78.7%. Further, the “anti-influenza virus activity” value in series [1] (50 μM) is listed as “some anti-influenza virus activity”. In the series with MDCK cells, the “Cell viability(%)” value is reported as 110.2%.
Consider `CC1(C)CC[C@]2(C(=O)O[C@H]3OC(CO)[C@H](O)C(O)C3O)C(O)C[C@]3(C)C(=CC[C@@H]4[C@@]5(C)CC[C@H](O)C(C)(C)C5CC[C@]43C)[C@@H]2C1` (stereo partly drawn) [Compound Q2, 3β,16α-dihydroxy-olean-12-en-28-oic acid-28-O-(β-D-glucoside)], for which the “Viral Infectivity (%)” value in series [1] (setting [2]) is 76.2%. Besides, in series [1] (50 μM), the “anti-influenza virus activity” value was “some anti-influenza virus activity”. Also, in the series with MDCK cells, the “Cell viability(%)” value amounted to 101.1%.
As for `CC(=O)OC1C(OC(C)=O)[C@@H](OC(C)=O)CO[C@@H]1OC(=O)[C@]12CCC(C)(C)C[C@H]1C1=CC[C@@H]3[C@@]4(C)CC[C@H](O)C(C)(C)[C@@H]4CC[C@@]3(C)[C@]1(C)CC2O` (stereo partly drawn) [Compound Q3, 3β,16α-dihydroxy-olean-12-en-28-oic acid-28-O-(2,3,4-tri-O-acetyl-β-D-xyloside)], in series [1] (setting [2]), the “Viral Infectivity (%)” value stood at 71.1%. Moreover, in series [1] (50 μM), the “anti-influenza virus activity” value is “some anti-influenza virus activity”. In the series on MDCK cells, the “Cell viability(%)” value stood at 100.4%.
Consider `CC1(C)CC[C@]2(C(=O)O[C@H]3OC[C@H](O)C(O)C3O)C(O)C[C@]3(C)C(=CC[C@@H]4[C@@]5(C)CC[C@H](O)C(C)(C)[C@@H]5CC[C@]43C)[C@@H]2C1` (stereo partly drawn) [Compound Q4, 3β,16α-dihydroxy-olean-12-en-28-oic acid-28-O-(β-D-xyloside)], for which the “Cell viability(%)” value with MDCK cells came to 0.1%.
Turning to `CC(=O)OC1C(OC(C)=O)[C@H](OC(C)=O)CO[C@@H]1OC(=O)[C@]12CCC(C)(C)C[C@H]1C1=CC[C@@H]3[C@@]4(C)CC[C@H](O)C(C)(C)[C@@H]4CC[C@@]3(C)[C@]1(C)CC2O` (stereo partly drawn) [Compound Q5, 3β,16α-dihydroxy-olean-12-en-28-oic acid-28-O-(2,3,4-tri-O-acetyl-β-D-arabinoside)], the “Viral Infectivity (%)” value in series [1] (setting [2]) is listed as 107.5%. Besides, the “Cell viability(%)” value with MDCK cells was 100.9%.
On to `CC1(C)CC[C@]2(C(=O)O[C@H]3OC[C@@H](O)C(O)C3O)C(O)C[C@]3(C)C(=CC[C@@H]4[C@@]5(C)CC[C@H](O)C(C)(C)[C@@H]5CC[C@]43C)[C@@H]2C1` (stereo partly drawn) [Compound Q6, 3β,16α-dihydroxy-olean-12-en-28-oic acid-28-O-(β-D-arabinoside)], for which, in the series with MDCK cells, the “Cell viability(%)” value came out at 38.4%.
For `CC(=O)OCC1O[C@H](OC(=O)[C@]23CCC(C)(C)C[C@H]2C2=CC[C@@H]4[C@@]5(C)CC[C@H](O)C(C)(C)[C@@H]5CC[C@@]4(C)[C@]2(C)CC3O)C(OC(C)=O)C(OC(C)=O)[C@@H]1OC(C)=O` (stereo partly drawn) [Compound Q8, 3β,16α-dihydroxy-olean-12-en-28-oic acid-28-O-(2,3,4,6-tetra-O-acetyl-α-D-galactoside)], the “Viral Infectivity (%)” value in series [1] (setting [2]) was found to be 109.7%. In the series on MDCK cells, the “Cell viability(%)” value is 102.6%.
`CC1(C)CC[C@]2(C(=O)O[C@H]3OC(CO)[C@H](O[C@H]4OC(CO)[C@@H](O)C(O)C4O)C(O)C3O)C(O)C[C@]3(C)C(=CC[C@@H]4[C@@]5(C)CC[C@H](O)C(C)(C)[C@@H]5CC[C@]43C)[C@@H]2C1` (stereo partly drawn) [Compound Q11, 3β,16α-dihydroxy-olean-12-en-28-oic acid-28-O-(β-D-lactoside)]: in series [1] (setting [2]), the “Viral Infectivity (%)” value is reported as 82.6%. Besides, in series [1] (50 μM), the “anti-influenza virus activity” value was “some anti-influenza virus activity”. For the same compound, the “Cell viability(%)” value with MDCK cells is reported as 92.8%.
For `CC(=O)OCC1O[C@@H](O[C@H]2C(COC(C)=O)O[C@H](OC(=O)[C@]34CCC(C)(C)C[C@H]3C3=CC[C@@H]5[C@@]6(C)CC[C@H](O)C(C)(C)[C@@H]6CC[C@@]5(C)[C@]3(C)CC4O)C(OC(C)=O)C2OC(C)=O)C(OC(C)=O)C(OC(C)=O)[C@H]1OC(C)=O` (stereo partly drawn) [Compound Q12, 3β,16α-dihydroxy-olean-12-en-28-oic acid-28-O-(hepta-O-acetyl-β-D-maltoside)] the same measures were 80.1%, “some anti-influenza virus activity” and 93.3%.
As to `CC1(C)CC[C@]2(C(=O)O[C@H]3OC(CO)[C@H](O[C@@H]4OC(CO)[C@H](O)C(O)C4O)C(O)C3O)C(O)C[C@]3(C)C(=CC[C@@H]4[C@@]5(C)CC[C@H](O)C(C)(C)[C@@H]5CC[C@]43C)[C@@H]2C1` (stereo partly drawn) [Compound Q13, 3β,16α-dihydroxy-olean-12-en-28-oic acid-28-O-(β-D-maltoside)], the “Viral Infectivity (%)” value in series [1] (setting [2]) came out at 115.5%. Moreover, the “Cell viability(%)” value with MDCK cells stood at 91.7%.
For `CC1(C)CC[C@]2(C(=O)O[C@H]3OC(CO)[C@H](O[C@H]4OC(CO)[C@H](O)C(O)C4O)C(O)C3O)C(O)C[C@]3(C)C(=CC[C@@H]4[C@@]5(C)CC[C@H](O)C(C)(C)[C@@H]5CC[C@]43C)[C@@H]2C1` (stereo partly drawn) [Compound Q14, 3β,16α-dihydroxy-olean-12-en-28-oic acid-28-O-(β-D-cellobioside)] the same measures were 154.4% and 98.3%.
Consider `CC(=O)OCC1O[C@H](NC(=O)[C@]23CCC(C)(C)CC2C2=CCC4[C@@]5(C)CC[C@H](O)C(C)(C)C5CC[C@@]4(C)[C@]2(C)C[C@H]3O)C(OC(C)=O)C(OC(C)=O)[C@@H]1OC(C)=O` (stereo partly drawn) [Compound Y1, 3β,16α-dihydroxy-olean-12-en-28-oic acid-28-N-(2,3,4,6-tetra-O-acetyl-β-D-galactoside)], for which the “Viral Infectivity (%)” value in series [1] (setting [3]) is recorded as 16.4%. For the same compound, in series [1] (50 μM), the “anti-influenza virus activity” value is “significant anti-influenza virus activity”. For the same compound, the “Cell viability (%)” value in the series with MDCK cells turned out to be 84.8%.
As to `CC(=O)OCC1O[C@H](NC(=O)[C@]23CCC(C)(C)CC2C2=CCC4[C@@]5(C)CCC(=O)C(C)(C)C5CC[C@@]4(C)[C@]2(C)CC3=O)C(OC(C)=O)C(OC(C)=O)[C@@H]1OC(C)=O` (some centres unmarked) [Compound Y3], in series [1] (setting [3]), the “Viral Infectivity (%)” value was 16.3%. Moreover, in series [1] (50 μM), the “anti-influenza virus activity” value is “significant anti-influenza virus activity”. Also, the “Cell viability (%)” value in the series with MDCK cells is 80.8%.
As for `CC1(C)CC[C@]2(C(=O)N[C@H]3OC(CO)[C@@H](O)C(O)C3O)C(=O)C[C@]3(C)C(=CCC4[C@@]5(C)CCC(=O)C(C)(C)C5CC[C@]43C)C2C1` (stereo partly drawn) [Compound Y4, 3,16-dione-olean-12-en-28-oic acid-28-N-(β-D-galactoside)], the “Viral Infectivity (%)” value in series [1] (setting [3]) was determined as 31.1%. Besides, the “Cell viability (%)” value in the series with MDCK cells worked out at 98.5%.
Consider `CC(=O)OCC1O[C@H](NC(=O)[C@]23CCC(C)(C)CC2C2=CCC4[C@@]5(C)CC[C@H](O)C(C)(C)C5CC[C@@]4(C)[C@]2(C)CC3)C(OC(C)=O)C(OC(C)=O)[C@H]1OC(C)=O` (stereo partly drawn) [Compound Y7, 3β-hydroxy-olean-12-en-28-oic acid-28-N-(2,3,4,6-tetra-O-acetyl-β-D-mannoside)], for which the “Viral Infectivity (%)” value in series [1] (setting [3]) is given as 17.4%. Further, the “anti-influenza virus activity” value in series [1] (50 μM) is recorded as “significant anti-influenza virus activity”. In the series on MDCK cells, the “Cell viability (%)” value came to 82.3%.
In the case of `CC(=O)OCC1O[C@H](NC(=O)[C@]23CCC(C)(C)CC2C2=CCC4[C@@]5(C)CCC(=O)C(C)(C)C5CC[C@@]4(C)[C@]2(C)CC3)C(OC(C)=O)C(OC(C)=O)[C@@H]1OC(C)=O` (stereo partly drawn) [Compound Y9, 3-carbonyl-olean-12-en-28-oic acid-28-N-(2,3,4,6-tetra-O-acetyl-β-D-galactoside)], the inhibition at 50 µM in series [1] (50 μM) worked out at 32.2 ± 1.81%.
`CC1(C)CC[C@]2(C(=O)N[C@H]3OC(CO)[C@@H](O)C(O)C3O)CC[C@]3(C)C(=CCC4[C@@]5(C)CCC(=O)C(C)(C)C5CC[C@]43C)C2C1` (stereo partly drawn) [Compound Y10, 3-carbonyl-olean-12-en-28-oic acid-28-N-(β-D-galactoside)]: the inhibition at 50 µM in series [1] (50 μM) is 4.84 ± 3.08%.
In the case of `CC(=O)OCC1O[C@H](NC(=O)[C@]23CCC(C)(C)CC2C2=CCC4[C@@]5(C)CC[C@H](O)C(C)(C)C5CC[C@@]4(C)[C@]2(C)C[C@H]3O)C(OC(C)=O)C(OC(C)=O)[C@H]1OC(C)=O` (stereo partly drawn) [Compound Y11, 3β,16α-dihydroxy-olean-12-en-28-oic acid-28-N-(2,3,4,6-tetra-O-acetyl-β-D-mannoside)], the inhibition at 50 µM in series [1] (50 μM) is 26.8 ± 3.46%.
As for `CC(=O)OCC1O[C@H](NC(=O)[C@]23CC[C@@H](C)[C@H](C)C2C2=CCC4[C@@]5(C)CC[C@H](O)C(C)(C)C5CC[C@@]4(C)[C@]2(C)C[C@H]3O)C(OC(C)=O)C(OC(C)=O)[C@@H]1OC(C)=O` (stereo partly drawn) [Compound Y13, 3β-hydroxy-urs-12-en-28-oic acid-28-N-(2,3,4,6-tetra-O-acetyl-β-D-galactoside)], in series [1] (50 μM), the inhibition at 50 µM amounted to 76.9 ± 5.53% and the “anti-influenza virus activity” value is recorded as “significant anti-influenza virus activity higher than Q9”.
Turning to `C[C@@H]1CC[C@]2(C(=O)N[C@H]3OC(CO)[C@@H](O)C(O)C3O)CC[C@]3(C)C(=CCC4[C@@]5(C)CC[C@H](O)C(C)(C)C5CC[C@]43C)C2[C@H]1C` (stereo partly drawn) [Compound Y14, 3β-hydroxy-urs-12-en-28-oic acid-28-N-(β-D-galactoside)], in series [1] (50 μM), the inhibition at 50 µM was 62.2 ± 2.96% and the “anti-influenza virus activity” value is listed as “significant anti-influenza virus activity higher than Q9”.
Regarding `CC(=O)OCC1O[C@H](NC(=O)[C@]23CC[C@@H](C)[C@H](C)C2C2=CCC4[C@@]5(C)CC[C@H](O)C(C)(C)C5CC[C@@]4(C)[C@]2(C)CC3)C(OC(C)=O)C(OC(C)=O)[C@H]1OC(C)=O` (stereo partly drawn) [Compound Y15, 3β-hydroxy-urs-12-en-28-oic acid-28-N-(2,3,4,6-tetra-O-acetyl-β-D-mannoside)], the inhibition at 50 µM in series [1] (50 μM) is 39.8 ± 3.6%.
The same measure, in the same setting: then `C[C@@H]1CC[C@]2(C(=O)N[C@H]3OC(CO)[C@H](O)C(O)C3O)CC[C@]3(C)C(=CCC4[C@@]5(C)CC[C@H](O)C(C)(C)C5CC[C@]43C)C2[C@H]1C` (stereo partly drawn) [Compound Y16, 3β-hydroxy-urs-12-en-28-oic acid-28-N-(β-D-mannoside)], with 48.2 ± 4.22%.
Turning to “echinocystic acid [EA, reference compound]”, the “Viral Infectivity (%)” value in series [1] (Table 6, […]) turned out to be 67.9%. The “anti-influenza virus activity” value in series [1] (50 μM) is on record as “some anti-influenza virus activity”.

As a reminder, the inhibition is how much of the control response was suppressed.
